Measurements taken from ChEMBL document CHEMBL5550173, “Design, synthesis and biological evaluation of indoline-maleimide conjugates as potential antitumor agents for the treatment of colorectal cancer” (Bioorg Med Chem, 2024).
The source made the active and inactive calls. No cut-off for these calls is given here.

Assays:
[1] = tested on: RKO; experiment: Inhibition of colony formation in human RKO cells incubated about 10 days with every 3 days of media replacement by crystal violet staining based assay; type: functional, cell-based; details: dose 1-4 µM, time 10.0 day
[2] = tested on: HCT-116; experiment: Cytotoxicity against human HCT-116 cells at 5 uM incubated for 72 hrs by MTS assay; type: functional
[3] = tested on: HT-29; experiment: Cytotoxicity against human HT-29 cells at 5 uM incubated for 72 hrs by MTS assay; type: functional
[4] = tested on: RKO; experiment: Induction of apoptosis in human RKO cells assessed as late apoptotic cells at 2.5 uM incubated for 48 hrs by Annexin V-PE and propidium iodide staining based flow cytometry analysis (reference value: 0.3%); type: functional
[5] = tested on: RKO; experiment: Induction of apoptosis in human RKO cells assessed as necrotic cells at 10 uM incubated for 48 hrs by Annexin V-PE and propidium iodide staining based flow cytometry analysis (reference value: 0.3%); type: functional
[6] = tested on: RKO; experiment: Effect on CDK2 expression in human RKO cells at 2.5 to 10 uM incubated for 48 hrs by Western blotting analysis; type: functional, cell-based; details: dose 2.5-10 µM
[7] = tested on: HCT-116; experiment: Induction of cell cycle arrest in human HCT-116 cells assessed as downregulation of CDK6 expression at 2.5 to 10 uM incubated for 48 hrs by Western blotting analysis; type: functional, cell-based; details: dose 2.5-10 µM
[8] = tested on: RKO; experiment: Induction of cell cycle arrest in human RKO cells assessed as upregulation of p53 expression at 2.5 to 10 uM incubated for 48 hrs by Western blotting analysis; type: functional, cell-based; details: dose 2.5-10 µM
[9] = Acute toxicity in BALB/c mouse assessed as appearance of abnormal behavior at 50 to 100 mg/kg, ip measured every 2 days; type: organism-based; details: in vivo, 48 h, dose 50-100 mg/kg
[10] = tested on: HCT-116; experiment: Antitumor activity against human HCT-116 cells xenografted in BALB/c mouse assessed as reduction in Ki67 protein expression at 5 to 10 mg/kg, ip measured every 2 days by immunohistochemistry analysis; type: functional, organism-based; details: dose 5-10 mg/kg
[11] = tested on: RKO; experiment: Induction of apoptosis in human RKO cells assessed as early apoptotic cells at 10 uM incubated for 48 hrs by Annexin V-PE and propidium iodide staining based flow cytometry analysis (reference value: 0.2%); type: functional
[12] = tested on: HCT-116; experiment: Antitumor activity against human HCT-116 cells xenografted in BALB/c mouse assessed as reduction in tumor volume at 5 to 10 mg/kg, ip measured every 2 days; type: functional, organism-based; details: dose 5-10 mg/kg
[13] = tested on: RKO; experiment: Induction of apoptosis in human RKO cells assessed as viable cells at 10 uM incubated for 48 hrs by Annexin V-PE and propidium iodide staining based flow cytometry analysis (reference value: 99.2%); type: functional; details: read-out: Activity
[14] = tested on: HCT-116; experiment: Induction of apoptosis in human HCT-116 cells assessed as late apoptotic cells at 2.5 uM incubated for 48 hrs by Annexin V-PE and propidium iodide staining based flow cytometry analysis (reference value: 0.5%); type: functional
[15] = tested on: HCT-116; experiment: Induction of apoptosis in human HCT-116 cells assessed as upregulation of cleaved caspase-7 expression incubated for 48 hrs by Western blotting analysis; type: functional, cell-based; details: dose 2.5-10 µM
[16] = tested on: RKO; experiment: Effect on cyclin D1 expression in human RKO cells at 2.5 to 10 uM incubated for 48 hrs by Western blotting analysis; type: functional, cell-based; details: dose 2.5-10 µM
[17] = tested on: HCT-116; experiment: Induction of apoptosis in human HCT-116 cells assessed as early apoptotic cells at 10 uM incubated for 48 hrs by Annexin V-PE and propidium iodide staining based flow cytometry analysis (reference value: 0.4%); type: functional
[18] = tested on: HCT-116; experiment: Cytotoxicity against human HCT-116 cells incubated for 72 hrs by MTS assay; type: functional, cell-based; details: HCT-116, 72 h
[19] = Acute toxicity in BALB/c mouse assessed as spleen lesion at 50 to 100 mg/kg, ip measured every 2 days by H and E staining based assay; type: organism-based; details: in vivo, 48 h, dose 50-100 mg/kg
[20] = tested on: RKO; experiment: Induction of cell cycle arrest in human RKO cells assessed as downregulation of CDK4 expression at 2.5 to 10 uM incubated for 48 hrs by Western blotting analysis; type: functional, cell-based; details: dose 2.5-10 µM
[21] = tested on: HCT-116; experiment: Antitumor activity against human HCT-116 cells xenografted in BALB/c mouse assessed as tumor growth suppression at 5 to 10 mg/kg, ip measured every 2 days by H and E staining based assay; type: functional, organism-based; details: dose 5-10 mg/kg
[22] = tested on: RKO; experiment: Induction of cell cycle arrest in human RKO cells assessed as downregulation of CDK6 expression at 2.5 to 10 uM incubated for 48 hrs by Western blotting analysis; type: functional, cell-based; details: dose 2.5-10 µM
[23] = Toxicity in BALB/c nude mouse assessed as adverse effect at 5 to 10 mg/kg, ip administered every 2 days; type: organism-based; details: in vivo, 48 h, dose 5-10 mg/kg
[24] = tested on: RKO; experiment: Induction of apoptosis in human RKO cells assessed as early apoptotic cells at 2.5 uM incubated for 48 hrs by Annexin V-PE and propidium iodide staining based flow cytometry analysis (reference value: 0.2%); type: functional
[25] = tested on: HCT-116; experiment: Effect on CDK2 expression in human HCT-116 cells at 2.5 to 10 uM incubated for 48 hrs by Western blotting analysis; type: functional, cell-based; details: dose 2.5-10 µM
[26] = tested on: RKO; experiment: Induction of apoptosis in human RKO cells assessed as viable cells at 2.5 uM incubated for 48 hrs by Annexin V-PE and propidium iodide staining based flow cytometry analysis (reference value: 99.2%); type: functional; details: read-out: Activity
[27] = tested on: RKO; experiment: Induction of apoptosis in human RKO cells assessed as early apoptotic cells at 5 uM incubated for 48 hrs by Annexin V-PE and propidium iodide staining based flow cytometry analysis (reference value: 0.2%); type: functional
[28] = tested on: HCT-116; experiment: Induction of apoptosis in human HCT-116 cells assessed as upregulation of cleaved caspase-3 expression incubated for 48 hrs by Western blotting analysis; type: functional, cell-based; details: dose 2.5-10 µM
[29] = tested on: HCT-116; experiment: Induction of apoptosis in human HCT-116 cells assessed as viable cells at 10 uM incubated for 48 hrs by Annexin V-PE and propidium iodide staining based flow cytometry analysis (reference value: 97.8%); type: functional; details: read-out: Activity
[30] = Acute toxicity in BALB/c mouse assessed as body weight loss at 50 to 100 mg/kg, ip measured every 2 days; type: organism-based; details: in vivo, 48 h, dose 50-100 mg/kg
[31] = Acute toxicity in BALB/c mouse assessed as heart lesion at 50 to 100 mg/kg, ip measured every 2 days by H and E staining based assay; type: organism-based; details: in vivo, 48 h, dose 50-100 mg/kg
[32] = biological target: Glycogen synthase kinase-3 beta (Homo sapiens) (UniProt P49841); experiment: Inhibition of GSK-3beta phosphorylation in human HCT-116 cells by incubated for 48 hrs Western blotting analysis; type: cell-based; details: dose 2.5-10 µM
Chain of Glycogen synthase kinase-3 beta (Homo sapiens) (P49841 whole entry, looked up): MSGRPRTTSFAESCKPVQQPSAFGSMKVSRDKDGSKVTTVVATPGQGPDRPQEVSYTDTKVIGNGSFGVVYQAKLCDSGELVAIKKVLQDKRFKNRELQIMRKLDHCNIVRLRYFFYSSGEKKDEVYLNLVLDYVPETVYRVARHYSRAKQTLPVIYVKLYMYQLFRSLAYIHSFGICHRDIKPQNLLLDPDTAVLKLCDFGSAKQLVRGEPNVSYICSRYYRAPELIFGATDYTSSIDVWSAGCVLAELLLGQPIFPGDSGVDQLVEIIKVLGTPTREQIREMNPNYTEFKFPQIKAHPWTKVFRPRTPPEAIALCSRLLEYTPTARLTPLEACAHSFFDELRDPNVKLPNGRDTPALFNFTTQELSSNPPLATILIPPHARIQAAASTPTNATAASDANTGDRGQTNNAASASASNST

[33] = Toxicity in BALB/c nude mouse assessed as changes in body weight at 5 to 10 mg/kg, ip administered every 2 days; type: organism-based; details: in vivo, 48 h, dose 5-10 mg/kg
[34] = tested on: HCT-116; experiment: Inhibition of colony formation in human HCT-116 cells at 4 uM incubated for 10 days with every 3 days of media replacement by crystal violet staining based assay; type: functional; details: HCT-116, 240 h, time 10 day
[35] = tested on: RKO; experiment: Inhibition of colony formation in human RKO cells at 4 uM incubated for 10 days with every 3 days of media replacement by crystal violet staining based assay; type: functional; details: 240 h, time 10 day
[36] = tested on: RKO; experiment: Induction of apoptosis in human RKO cells assessed as necrotic cells at 2.5 uM incubated for 48 hrs by Annexin V-PE and propidium iodide staining based flow cytometry analysis (reference value: 0.3%); type: functional
[37] = tested on: RKO; experiment: Cytotoxicity against human RKO cells incubated for 72 hrs by MTS assay; type: functional, cell-based

In the case of `C=C(C)C(=O)N1CCc2cccc(C3=CC(=O)N(C)C3=O)c21`, the inhibition [1] is reported as “Dose-Dependent Effect”, the Activity [2] is reported as 98.06% and the Activity [3] is reported as 99.28%. The Activity [4] was 0.4%, the Activity [5] was 0.7% and the Activity [6] was “inactive”. The Activity [7] was “Active”, the Activity [8] was “Active” and the Activity [9] was “Non-Toxic”. For the same compound, the Activity [10] was “Active”, the Activity [11] was 4.9% and the Activity [12] was “Active”. The viability at 10 µM [13] was 93.4%, the Activity [14] was 1% and the Activity [15] was “Dose-Dependent Effect”. For the same compound, the Activity [16] was “inactive”, the Activity [17] was 5% and the IC50 [18] was 1570 nM. The Activity [19] was “Non-Toxic”, the Activity [20] was “Active” and the Activity [21] was “Active”. The Activity [22] was “Active”, the Activity [23] was “Non-Toxic” and the Activity [24] was 0.5%. For the same compound, the Activity [25] was “inactive”, the viability at 2.5 µM [26] was 99% and the Activity [27] was 1.5%. The Activity [28] was “Dose-Dependent Effect”, the viability at 10 µM [29] was 83.1% and the Activity [30] was “Non-Toxic”. The Activity [31] was “Non-Toxic”, the inhibition [32] was “Dose-Dependent Effect” and the Activity [33] was “Non-Toxic”. The inhibition at 4 µM [34] was 100%, the inhibition at 4 µM [35] was 100% and the Activity [36] was 0.1%. For the same compound, the IC50 [37] was 1100 nM.
